Test results: patent US8124111B2, “Immunomodulation by altering sphingosine 1-phosphate lyase (SPL) activity” (Children's Hospital & Research Center at Oakland, priority 2005, dated 2012)

Biological target: T1, SPL (Homo sapiens, UniProt O95470)
T1 sequence (O95470 1-568): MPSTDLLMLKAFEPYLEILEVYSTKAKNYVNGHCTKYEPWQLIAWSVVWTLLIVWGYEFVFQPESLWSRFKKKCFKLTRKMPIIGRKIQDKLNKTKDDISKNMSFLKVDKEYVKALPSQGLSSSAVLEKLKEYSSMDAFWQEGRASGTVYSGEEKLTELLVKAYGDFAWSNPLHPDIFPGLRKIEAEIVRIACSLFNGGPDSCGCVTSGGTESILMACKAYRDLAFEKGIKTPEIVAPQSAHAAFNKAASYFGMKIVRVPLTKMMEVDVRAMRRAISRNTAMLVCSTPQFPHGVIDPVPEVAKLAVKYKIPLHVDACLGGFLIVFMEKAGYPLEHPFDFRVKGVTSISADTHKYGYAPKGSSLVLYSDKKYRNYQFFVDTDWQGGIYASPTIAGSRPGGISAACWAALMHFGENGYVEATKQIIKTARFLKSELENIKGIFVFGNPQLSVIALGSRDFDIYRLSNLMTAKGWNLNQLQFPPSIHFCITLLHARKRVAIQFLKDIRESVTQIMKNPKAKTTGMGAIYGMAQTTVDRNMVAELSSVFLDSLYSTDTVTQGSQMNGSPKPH
Assay: Inhibition of SPL activity in vitro (whole cell extracts of HEK293 cells with human SPL adenoviral construct)
Format: biochemical
Set-up: expressed in transfected cells; host or cells: HEK293 infected with adenoviral vector
Experimental: Various concentrations of FTY720 or its phosphorylated derivative (FTY720P) were incubated for 30 minutes on ice with whole cell extracts containing high SPL activity by virtue of a human SPL adenoviral expression construct. SPL activity was determined. (A) FTY720; (B) FTY720-P.
SPL enzyme assay: Tissues were homogenized by sonication in 9 volumes of ice-cold homogenization buffer (5 mM MOPS pH 7.5, 1 mM DTT, 1 mM EDTA, 0.25 M sucrose, and 5 micrograms/ml each chymostatin, leupeptin, pepstatin A and antipain). SPL assays were conducted using 50 micrograms protein per assay and radioactive [4,5 ^3H]DHS1P substrate, as described previously (Reiss et al., (2004) J Biol Chem 279, 1281-1290). For in vitro FTY720 and FTY720-P experiments, drug was incubated with whole cell extracts prepared from HEK293 cells infected with an adenoviral vector expressing human SPL. These extracts contained approximately 200 picomoles/mg protein/minute SPL activity. Drug was incubated with extracts for 30 minutes, followed by addition of extracts to reaction buffer and substrate to initiate the reaction.
Although treatment with FTY720 was associated with low (nanomolar) circulating drug levels, it was possible that local concentrations within cells and subcellular compartments may have been considerably higher, since FTY720 has been reported to be actively transported into cells by the actions of drug transporters that recognize long chain bases (Honig et al., (2003) J Clin Invest 111, 627-637).

[1] = 30 minutes incubation with extracts

- dose dependence of SPL inhibition in vitro: dose-dependent
- concentration of maximal effect on SPL activity in vitro [1]: 30 µM
- lowest concentration with effect on SPL activity in vitro [1]: 300 nM
Compound: CCCCCCCCc1ccc(CCC(N)(CO)CO)cc1 [FTY720]
